# From paper PMC12473906, “Comparing the Altis RepliGut Organoid System to MDCK Monolayers in Predicting the Oral Absorption of Lenalidomide” (Pharmaceutics, 2025)
# Read-outs that look alike come from different tables or passages of the source.
# What was measured:
# [1] = ref PubChem; cited from earlier work
# [2] = tested on: human intestinal organoid-derived monolayer (RepliGut); assay: RepliGut human jejunal organoid-derived monolayer permeability assay; settings: organoid vs gMDCK
# [3] = as above; settings: human, pH 7.4
# [4] = cited from earlier work; for Main Route of Absorption: as listed in Table 2, no reference given
# in vitro [5] = settings: human, pH 7.4
# [6] = tested on: human intestinal organoid-derived monolayer (RepliGut)
# in vitro [7] = settings: dog, MDCK, pH 7.4, gMDCK Papp
# gMDCK monolayers = settings: MDCK
# [8] = gMDCK (P-gp knockout MDCK) monolayer permeability assay; settings: dog, MDCK, pH 7.4, gMDCK Papp, reference compounds; apical to basolateral; n=3 biological replicates
Compound,LogP [1],apical to basolateral apparent permeability in intestinal organoids compared with gMDCK monolayers [2],basolateral to apical permeability in intestinal organoids compared with gMDCK cells [2],Papp at 3 h [3],Main Route of Absorption [4],Human Fa (fraction absorbed) [4],Efflux Substrate [6],basolateral to apical permeability in intestinal organoids compared with gMDCK cells [6],also measured
CC(CCc1ccccc1)NCC(O)c1ccc(O)c(C(N)=O)c1 (stereo not drawn) [Labetalol],1.8,significantly lower,significantly higher,0.85 ×10⁻⁶ cm/s,Both,95% [9],–,–,–
COCCc1ccc(OCC(O)CNC(C)C)cc1 (stereo not drawn) [Metoprolol],–,–,–,–,–,–,No,similar,Papp at 3 h (in vitro [5]): 10.1 ×10⁻⁶ cm/s; Papp at 3 h (in vitro [7]): 13 ×10⁻⁶ cm/s
Lucifer yellow,–,–,–,–,–,–,–,similar,apical to basolateral apparent permeability in intestinal organoids compared with gMDCK monolayers [6]: higher; effect of shaking gMDCK cells during the permeability assay on permeability (gMDCK monolayers): did not significantly change
CC(C)(C)NCC(O)COc1cccc2c1CC(O)C(O)C2 (stereo not drawn) [Nadolol],–,higher,significantly higher,0.17 ×10⁻⁶ cm/s,Paracellular,57% [9],Yes,–,efflux ratio at 3 h (in vitro [5]): > 4; Papp at 3 h [8]: 0.09 ×10⁻⁶ cm/s
CC(C)CN(C[C@@H](O)[C@H](Cc1ccccc1)NC(=O)O[C@H]1CCOC1)S(=O)(=O)c1ccc(N)cc1 [Amprenavir],2.2,–,–,–,Transcellular,–,Yes,–,–
